As usually defined, the EC50 is the concentration that produces a half-maximal response.

Assay [1] deals with P. aeruginosa (PAO1). Kind of assay: Pyocyanin assay. The format is cell-based, Pseudomonas aeruginosa. The note with it: for pyocyanin production, single compound screens: MOPS Glutamate and Glucose media, complete or iron/phosphate depleted, 17 h, 100 μM (compounds 1, 2, 3), 25 μM (compound 4), relative to DMSO. As for the experimental part: A. Pyocyanin Assay Protocol. The amount of pyocyanin in P. aeruginosa culture supernatants was measured following a reported protocol (O'Loughlin et al., 2013) with modifications. A 10 mL overnight culture of P. aeruginosa PAO1 was grown for 16 h. DMSO stock solutions of test compounds (20 mM) were prepared, and 10 μL or 5 μL aliquots were added to sterile 15 mL borosilicate glass test tubes. An inoculating culture was prepared by diluting the overnight culture 1:100 into freshly prepared assay medium (see above), and 2 mL aliquots of this subculture were added to each test tube (0.5% DMSO, final). The cultures were grown for 17 h, and the final cell density measured by reading OD600. Relative pyocyanin levels were measured by first pelleting 1.5 mL of well-mixed culture at 4,000 g for 10 min, transferring 200 μL of the resulting supernatant to a clear, plastic 96-well microtiter plate, and reading absorbance at 695 nm. Media background absorbance (measured from a “no bacteria” control) was subtracted, the resulting values growth normalized by dividing by the final OD600378, and the data plotted relative to a DMSO-treated positive control. B. Rhamnolipid Assay Protocol. Rhamnolipid was quantified following a reported protocol (Koch et al., 1991) with modifications. Assay cultures were prepared and grown in an identical manner to the pyocyanin assay above. Aliquots of the final culture supernatant (1 mL) were transferred to 1 dram glass vials and extracted twice with 1 mL diethyl ether. The pooled organic fractions were evaporated to dryness, and the resulting residue reconstituted in 200 μL de-ionized water. In a 1.7 mL plastic centrifuge tube, 50 μL of this extract was diluted into 450 μL of a solution of 0.19% (w/v) orcinol in 50% (v/v) concentrated H2SO4 (or 20 μL extract into 480 μL orcinol solution for cultures grown in MOPS Glucose medium). The tubes were vortexed thoroughly to mix and incubated in an 80° C. heating block for 30 min. After briefly cooling to room temperature, 200 μL of the resulting yellow to yellow-orange solution was transferred to a clear 96-well microtiter plate, and the absorbance at 421 nm measured. Media background absorbance (measured from a “no bacteria” control) was subtracted, the resulting values growth normalized by dividing by the final OD600, and the data plotted relative to a DMSO-treated positive control. C. Elastase B Assay Protocol. The amount of elastase B in P. aeruginosa culture supernatants was measured following a reported protocol (Geske et al., 2007) with modifications. Assay cultures were prepared and grown in an identical manner to the pyocyanin assay above. Aliquots of the final culture supernatant (50 μL) were added to the wells of a clear, plastic 96-well plate. To each well, 150 μL of 0.5% (w/v) elastin-congo red conjugate (Elastin Products Co.) in Tris buffer (10 mM Tris-HCl, 1 mM CaCl2, pH 7.2) was added. The plate was sealed with a polypropylene storage mat (Costar 3080) and incubated in a 37° C. shaking incubator (200 rpm) attached to a Labquake rotator for 12 h (for experiments in SCFM2) or 24 h (for experiments in MOPS medium). To quantify elastase B activity, the undigested elastin was pelleted by centrifugation of the assay plate at 1,500 g for 10 min, after which 100 μL of the supernatant was transferred to a new, clear 96-well plate, and the absorbance at 490 nm measured. Media background absorbance (measured from a “no bacteria” control) was subtracted, the resulting values growth normalized by dividing by the final OD600, and the data plotted relative to a DMSO-treated positive control.

The test system of assay [2] is P. aeruginosa (PAO1). The assay is described as follows: Rhamnolipid assay. Format: cell-based, Pseudomonas aeruginosa. The note with it: MOPS Glutamate and Glucose media, complete or iron/phosphate depleted, 17 h, 100 μM (compounds 1, 2, 3), 25 μM (compound 4), relative to DMSO. As for the experimental part:
(§1) A. Pyocyanin Assay Protocol. The amount of pyocyanin in P. aeruginosa culture supernatants was measured following a reported protocol (O'Loughlin et al., 2013) with modifications. A 10 mL overnight culture of P. aeruginosa PAO1 was grown for 16 h. DMSO stock solutions of test compounds (20 mM) were prepared, and 10 μL or 5 μL aliquots were added to sterile 15 mL borosilicate glass test tubes. An inoculating culture was prepared by diluting the overnight culture 1:100 into freshly prepared assay medium (see above), and 2 mL aliquots of this subculture were added to each test tube (0.5% DMSO, final). The cultures were grown for 17 h, and the final cell density measured by reading OD600. Relative pyocyanin levels were measured by first pelleting 1.5 mL of well-mixed culture at 4,000 g for 10 min, transferring 200 μL of the resulting supernatant to a clear, plastic 96-well microtiter plate, and reading absorbance at 695 nm. Media background absorbance (measured from a “no bacteria” control) was subtracted, the resulting values growth normalized by dividing by the final OD600378, and the data plotted relative to a DMSO-treated positive control. B. Rhamnolipid Assay Protocol. Rhamnolipid was quantified following a reported protocol (Koch et al., 1991) with modifications. Assay cultures were prepared and grown in an identical manner to the pyocyanin assay above. Aliquots of the final culture supernatant (1 mL) were transferred to 1 dram glass vials and extracted twice with 1 mL diethyl ether. The pooled organic fractions were evaporated to dryness, and the resulting residue reconstituted in 200 μL de-ionized water. […] After briefly cooling to room temperature, 200 μL of the resulting yellow to yellow-orange solution was transferred to a clear 96-well microtiter plate, and the absorbance at 421 nm measured. Media background absorbance (measured from a “no bacteria” control) was subtracted, the resulting values growth normalized by dividing by the final OD600, and the data plotted relative to a DMSO-treated positive control. […] The amount of elastase B in P. aeruginosa culture supernatants was measured following a reported protocol (Geske et al., 2007) with modifications. […] To quantify elastase B activity, the undigested elastin was pelleted by centrifugation of the assay plate at 1,500 g for 10 min, after which 100 μL of the supernatant was transferred to a new, clear 96-well plate, and the absorbance at 490 nm measured. Media background absorbance (measured from a “no bacteria” control) was subtracted, the resulting values growth normalized by dividing by the final OD600, and the data plotted relative to a DMSO-treated positive control.

Assay [3] has as its system P. aeruginosa (PAO1). Kind of assay: Elastase B assay. The note with it: 17 h. Format: cell-based, Pseudomonas aeruginosa. As to the method:
as §1

For assay [4], the system named is P. aeruginosa (PAO1). Kind of assay: P. aeruginosa growth curves. Format: cell-based, Pseudomonas aeruginosa. As to the method: FIGS. 2A-2D are wild-type P. aeruginosa growth curves in the presence of test compounds in various media. Related to FIGS. 3, 6A and 6B, 7A and 7B, and 12. (FIG. 2A) Growth curves in complete MOPS/Glutamate. (FIG. 2B) Growth curves in complete MOPS/Glucose. […] (FIG. 2D) Growth curves in SCFM2. P. aeruginosa (PAO1) was grown in a manner identical to the pyocyanin assay (see Experimental Procedures). At each time point, growth was measured by either reading OD600 (for MOPS media) or by serially diluting culture aliquots, plating on LB agar, and counting CFUs after overnight incubation at 37° C. (for SCFM2). Compound concentrations are 100 microM for compounds 1, 2, and 3 and 25 microM for compound 4 in all experiments unless noted otherwise. Error bars represent the standard error of at least two biological replicates (n≥2). BHL=N-butyryl L-homoserine lactone (Cayman Chemicals).
B. Bacterial Strains and Growth Conditions. Protocols for construction of genetic knockout strains are described below in Example 2. All reagents for bacterial culture were purchased from Sigma-Aldrich unless indicated otherwise. Bacteria were routinely cultured in Luria-Bertani broth (LB) at 37° C. with shaking at 200 rpm. Freezer stocks of bacterial strains were maintained at −80° C. in 1:1 LB:glycerol. Bacterial growth was routinely assessed by measuring the culture cell density according to absorbance at 600 nm (OD600341). Cell growth in simulated cystic fibrosis sputum medium (SCFM2) was determined by serially diluting assay cultures, plating on LB agar, and counting the number of colony forming units (CFU) appearing after overnight incubation at 37° C.

The target in a further assay is T1, RhlR (Pseudomonas aeruginosa, UniProt P54292).
T1 construct: expressed in transfected cells; host or cells: E. coli JLD271
Kind of assay: P. aeruginosa reporter assay, RhlR agonism (native ligand). The format is cell-based. As for the experimental part: P. aeruginosa reporter assays: Primary assays for RhlR activity in P. aeruginosa were performed as previously reported for LasR, [33] with the following modifications: OdDHL was added to the subculture to a final concentration of 100 nm immediately before it was dispensed into plates to induce expression of RhlR. For RhlR antagonism assays, synthetic ligand (100 mm) was screened against BHL at its EC50 (30 mm). For RhlR agonism assays, synthetic ligand (100 mm) was screened alongside and compared to BHL (at 900 mm) for the system. Dose-response reporter gene assays were performed according to these protocols by using various concentrations of compound.
In general terms: Reporter assays use an easily measured gene product as a stand-in for the process of interest.

“Also recorded” adds a separate entry of the source.

T1 sequence (P54292 whole entry): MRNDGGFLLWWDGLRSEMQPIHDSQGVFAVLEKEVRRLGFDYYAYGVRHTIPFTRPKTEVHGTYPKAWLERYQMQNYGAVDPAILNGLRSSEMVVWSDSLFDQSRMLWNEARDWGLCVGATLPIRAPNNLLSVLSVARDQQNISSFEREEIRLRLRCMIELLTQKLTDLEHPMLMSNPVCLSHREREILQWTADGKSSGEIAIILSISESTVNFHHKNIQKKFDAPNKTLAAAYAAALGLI

Regarding `CCCCCCCCCC(=O)CC(=O)Nc1ccccc1` [compound 1], the “pyocyanin production, single compound screens” value in the assay with P. aeruginosa (PAO1) [1] is reported as “strong pyocyanin inhibition, unless phosphate concentrations were low”. In the assay on P. aeruginosa (PAO1) [1] (MOPS Glutamate with phosphate diluted 10-fold, 100 microM compound 1), the “pyocyanin production over time, low phosphate medium” value is listed as “does not attenuate pyocyanin production; also recorded: little to no effect”. Further, the “pyocyanin production over time, complete medium” value in the assay on P. aeruginosa (PAO1) [1] (complete MOPS Glutamate, 100 microM compound 1) is “eliminated pyocyanin synthesis”. Moreover, in the assay on P. aeruginosa (PAO1) [2], the “rhamnolipid production, single compound screens” value is listed as “little to no effect”. Also, in the assay on P. aeruginosa (PAO1) [3] (MOPS Glutamate and Glucose media, complete or iron/phosphate depleted, 100 μM (compounds 1, 2, 3), relative to DMSO), the “elastase B production, single compound screens” value is “little to no effect”. For the same compound, the “effect on cell growth, compound 1” value in the assay with P. aeruginosa (PAO1) [4] (MOPS Glutamate, 100 microM compound 1) was “no effect on cell growth”.

On to `O=C(CSc1nc2cc([N+](=O)[O-])ccc2[nH]1)Nc1ccc(Oc2ccccc2)cc1` [compound 4, 2-[(6-nitro-1H-benzimidazol-2-yl)-sulfanyl]-N-(4-phenoxyphenyl)acetamide], for which the “pyocyanin production, single compound screens” value with P. aeruginosa (PAO1) [1] is “eliminated pyocyanin synthesis under all conditions tested, even low iron and phosphate”. Further, the “rhamnolipid production, single compound screens” value in the assay on P. aeruginosa (PAO1) [2] is recorded as “failed to inhibit rhamnolipid production; also recorded: cannot inhibit rhamnolipid”. The “elastase B production in MOPS Glutamate, single compound screen” value in the assay with P. aeruginosa (PAO1) [3] (MOPS Glutamate, 25 μM compound 4) is listed as “strong attenuation of elastase B production”.

At RhlR, `CCCC(=O)N[C@H]1CCOC1=O` [BHL, N-butyryl L-homoserine lactone, reference compound] yielded a 50% effective concentration (EC50) of around 8 µM. In the assay on P. aeruginosa (PAO1) [4] (complete MOPS Glutamate, 100 μM), the “growth in MOPS Glutamate” value is recorded as “also produced the growth delay”.

Values taken from patent US10322112B2, “Compound combinations for attenuation of bacterial virulence” (priority 2016, dated 2019).
